Columns and labels:
Type in all cases: functional, cell-based
[1] = biological target: T1, ATP-dependent translocase ABCB1 (Homo sapiens, UniProt P08183); experiment: TP_TRANSPORTER: inhibition of Taxol transepithelial transport (basal to apical)(Taxol: 0.04-0.06 uM, Tween 80: 0.05 %) in Caco-2 cells
[2] = biological target: T1, ATP-dependent translocase ABCB1; experiment: TP_TRANSPORTER: inhibition of Taxol transepithelial transport (basal to apical)(Taxol: 0.04-0.06 uM, Tween 80: 0.05 %) in MDR1-expressing MDCK cells; settings: dog
[3] = biological target: T1, ATP-dependent translocase ABCB1; experiment: TP_TRANSPORTER: inhibition of Taxol transepithelial transport (basal to apical)(Taxol: 0.04-0.06 uM, Cremophor EL: 0.1 %) in Caco-2 cells
[4] = biological target: T1, ATP-dependent translocase ABCB1; experiment: TP_TRANSPORTER: inhibition of Taxol transepithelial transport (basal to apical)(Taxol: 0.04-0.06 uM, Cremophor EL: 0.1 %) in MDR1-expressing MDCK cells; settings: dog
[5] = biological target: T1, ATP-dependent translocase ABCB1; experiment: TP_TRANSPORTER: inhibition of Taxol transepithelial transport (basal to apical) (Taxol: 0.04-0.06 uM, PEG-300: 20 %) in Caco-2 cells
[6] = biological target: T1, ATP-dependent translocase ABCB1; experiment: TP_TRANSPORTER: inhibition of Taxol transepithelial transport (basal to apical) (Taxol: 0.04-0.06 uM, PEG-300: 20 %) in MDR1-expressing MDCK cells; settings: dog

T1 sequence (P08183 whole entry): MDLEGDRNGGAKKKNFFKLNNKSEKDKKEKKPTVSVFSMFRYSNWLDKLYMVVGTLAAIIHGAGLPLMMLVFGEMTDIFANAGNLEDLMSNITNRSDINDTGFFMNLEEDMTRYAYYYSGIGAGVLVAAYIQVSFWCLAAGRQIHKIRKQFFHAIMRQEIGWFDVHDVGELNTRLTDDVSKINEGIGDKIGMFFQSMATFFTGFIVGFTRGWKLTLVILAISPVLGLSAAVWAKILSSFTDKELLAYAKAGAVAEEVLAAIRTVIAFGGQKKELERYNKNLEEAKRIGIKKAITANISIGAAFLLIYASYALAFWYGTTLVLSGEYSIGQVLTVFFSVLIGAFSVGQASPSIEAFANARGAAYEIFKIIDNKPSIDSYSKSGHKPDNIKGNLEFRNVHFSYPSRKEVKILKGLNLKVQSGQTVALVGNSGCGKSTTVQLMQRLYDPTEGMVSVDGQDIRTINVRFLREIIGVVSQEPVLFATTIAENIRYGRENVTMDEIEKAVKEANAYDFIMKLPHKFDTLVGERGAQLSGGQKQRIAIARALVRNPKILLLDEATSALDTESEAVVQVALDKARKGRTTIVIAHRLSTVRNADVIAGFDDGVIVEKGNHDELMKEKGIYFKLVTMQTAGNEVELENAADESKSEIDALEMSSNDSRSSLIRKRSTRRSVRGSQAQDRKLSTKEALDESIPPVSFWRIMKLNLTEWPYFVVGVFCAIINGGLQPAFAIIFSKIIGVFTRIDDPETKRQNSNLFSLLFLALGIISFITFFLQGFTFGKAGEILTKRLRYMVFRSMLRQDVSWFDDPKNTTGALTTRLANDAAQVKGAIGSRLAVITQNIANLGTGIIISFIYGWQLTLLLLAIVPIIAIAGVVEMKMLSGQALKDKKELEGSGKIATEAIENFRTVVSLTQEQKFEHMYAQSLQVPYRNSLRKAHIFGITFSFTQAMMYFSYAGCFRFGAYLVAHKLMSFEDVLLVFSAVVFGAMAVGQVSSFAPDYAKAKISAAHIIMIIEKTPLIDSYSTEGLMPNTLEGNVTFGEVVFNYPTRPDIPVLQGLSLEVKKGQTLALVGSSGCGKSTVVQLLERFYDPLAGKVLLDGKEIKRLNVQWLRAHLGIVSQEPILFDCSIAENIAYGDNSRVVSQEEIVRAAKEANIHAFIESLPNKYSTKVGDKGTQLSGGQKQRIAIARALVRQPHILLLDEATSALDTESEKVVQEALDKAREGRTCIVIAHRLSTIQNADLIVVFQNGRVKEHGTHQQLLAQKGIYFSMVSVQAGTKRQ

## CCCCCCCC/C=C\CCCCCCCC(=O)OCCOCC(OCCO)C1OCC(OCCO)C1OCCO (stereo unspecified) [TWEEN 80]
[1]
  Activity: inhibitor [+]
[2]
  Activity: is not an inhibitor [-]

## CREMOPHOR EL
[3]
  Activity: inhibitor [+]
[4]
  Activity: is not an inhibitor [-]

## PEG 300
[5]
  Activity: inhibitor [+]
[6]
  Activity: inhibitor [+]

Reference: ChEMBL document CHEMBL2074444, “A comparison of commonly used polyethoxylated pharmaceutical excipients on their ability to inhibit P-glycoprotein activity in vitro” (J Pharm Sci, 2002)
